Columns and labels:
[1] = target: Cathepsin S (UniProt P25774); test: Cathepsin enzyme inhibition assay (fluorogenic peptide substrate Z-Val-Val-Arg-AMC), Cathepsin S; type: biochemical, human and mouse; settings: enzyme 1 nM, substrate 20 μM, pH 6.5; read-out: CatS IC50
How it was run: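 Human or mouse cathepsin S (1 nM) was run in 100 mM potassium phosphate pH 6.5 with 5 mM EDTA, 0.001% Triton X-100 and 5 mM DTT. The rise in AMC fluorescence from cleavage was measured, and IC50 values were calculated by standard methods and expressed in μM.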

[2] = target: Cat L (UniProt P07711); test: Cathepsin enzyme inhibition assay (fluorogenic peptide substrate Z-Val-Val-Arg-AMC), Cathepsin L; type: biochemical, human and mouse; settings: enzyme 1 nM, substrate 20 μM, pH 6.5; read-out: CatL IC50
How it was run: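 Cathepsin L at 1 nM was mixed with compound, then started with 20 μM Z-Val-Val-Arg-AMC in pH 6.5 potassium phosphate with EDTA, Triton X-100 and 5 mM DTT. AMC fluorescence (ex 360/em 465 nm) was followed over 20 min. IC50 is given in μM.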

SMILES	IC50 [1] [nM]	IC50 [2] [nM]
Cc1cc(N2C[C@H](S(=O)(=O)c3ccccc3C(F)(F)F)C[C@H]2C(=O)NC2(C#N)CC2)n(-c2ccc(C(F)(F)F)cc2)n1 [Example 232, (2S,4R)-1-[5-Methyl-2-(4-trifluoromethyl-phenyl)-2H-pyrazol-3-yl]-4-(2-trifluoromethyl-benzenesulfonyl)-pyrrolidine-2-carboxylic acid (1-cyano-cyclopropyl)-amide]	0.21	12800
Cc1cc(N2C[C@H](S(=O)(=O)c3ccccc3C(F)(F)F)C[C@H]2C(=O)NC2(C#N)CC2)n(-c2cccc(Cl)c2)n1 [Example 233, (2S,4R)-1-[2-(3-Chloro-phenyl)-5-methyl-2H-pyrazol-3-yl]-4-(2-trifluoromethyl-benzenesulfonyl)-pyrrolidine-2-carboxylic acid (1-cyano-cyclopropyl)-amide]	0.465	21100
Cc1cc(N2C[C@H](S(=O)(=O)c3ccccc3C(F)(F)F)C[C@H]2C(=O)NC2(C#N)CC2)n(-c2nccs2)n1 [Example 234, (2S,4R)-1-(5-Methyl-2-thiazol-2-yl-2H-pyrazol-3-yl)-4-(2-trifluoromethyl-benzenesulfonyl)-pyrrolidine-2-carboxylic acid (1-cyano-cyclopropyl)-amide]	1.57	≥ 25000
N#CC1(NC(=O)[C@@H]2C[C@@H](S(=O)(=O)c3ccc(F)cc3F)CN2C(=O)C2(c3ccc(Cl)cc3)CC2)CC1 [Example 235, (2S,4R)-1-[1-(4-Chloro-phenyl)-cyclopropanecarbonyl]-4-(2,4-difluoro-benzenesulfonyl)-pyrrolidine-2-carboxylic acid (1-cyano-cyclopropyl)-amide]	0.95	550
CC(C)CS(=O)(=O)[C@@H]1C[C@@H](C(=O)NC2(C#N)CC2)N(C(=O)C2(c3ccc(Cl)cc3)CC2)C1 [Example 236, (2S,4R)-1-[1-(4-Chloro-phenyl)-cyclopropanecarbonyl]-4-(2-methyl-propane-1-sulfonyl)-pyrrolidine-2-carboxylic acid (1-cyano-cyclopropyl)-amide]	240	≥ 25000
N#CC1(NC(=O)[C@@H]2C[C@@H](S(=O)(=O)c3ccc(OCC(F)(F)F)cc3C(F)(F)F)CN2C(=O)C2(C(F)(F)F)CC2)CC1 [Example 237, (2S,4R)-4-[4-(2,2,2-Trifluoro-ethoxy)-2-trifluoromethyl-benzenesulfonyl]-1-(1-trifluoromethyl-cyclopropanecarbonyl)-pyrrolidine-2-carboxylic acid (1-cyano-cyclopropyl)-amide]	0.168	≥ 25000
Cn1cc(-c2ccc(S(=O)(=O)[C@@H]3C[C@@H](C(=O)NC4(C#N)CC4)N(C(=O)C4(C(F)(F)F)CC4)C3)c(C(F)(F)F)c2)cn1 [Example 238, (2S,4R)-4-[4-(1-Methyl-1H-pyrazol-4-yl)-2-trifluoromethyl-benzenesulfonyl]-1-(1-trifluoromethyl-cyclopropanecarbonyl)-pyrrolidine-2-carboxylic acid (1-cyano-cyclopropyl)-amide]	0.05	20800
N#CC1(NC(=O)[C@@H]2C[C@@H](S(=O)(=O)c3ccc(OCC(F)(F)F)cc3Cl)CN2C(=O)C2(c3ccc(Cl)c(Cl)c3)CC2)CC1 [Example 239, (2S,4R)-4-[2-Chloro-4-(2,2,2-trifluoro-ethoxy)-benzenesulfonyl]-1-[1-(3,4-dichloro-phenyl)-cyclopropanecarbonyl]-pyrrolidine-2-carboxylic acid (1-cyano-cyclopropyl)-amide]	0.08	84
N#CC1(NC(=O)[C@@H]2C[C@@H](S(=O)(=O)c3ccc(OCC(F)(F)F)cc3Cl)CN2C(=O)C2(c3ccccc3)CC2)CC1 [Example 240, (2S,4R)-4-[2-Chloro-4-(2,2,2-trifluoro-ethoxy)-benzenesulfonyl]-1-(1-phenyl-cyclopropanecarbonyl)-pyrrolidine-2-carboxylic acid (1-cyano-cyclopropyl)-amide]	0.09	590

From patent US8163793B2, “Proline derivatives” (Hoffman-La Roche Inc., priority 2009, dated 2012)
